How the values were obtained:
Assay type in all cases: in vivo
[1] = test system: wild oat (Avena fatua); experiment: Test B postemergence; conditions: scale 0 to 100 (0 no effect, 100 complete control)
Outline: (§1)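 Visual rating, 0 (no effect) to 100 (complete control) versus controls, taken 13–15 days after treatment in greenhouse. Compounds formulated in non-phytotoxic solvent plus surfactant; pre: sprayed after seeding; post: plants at 1- to 4-leaf stage, 2–18 cm.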

[2] = test system: blackgrass (Alopecurus myosuroides); experiment: Test B postemergence; conditions: scale 0 to 100 (0 no effect, 100 complete control)
Outline: as §1

[3] = test system: lambsquarters (Chenopodium album); experiment: Test B pre/postemergence; conditions: for Lambsquarters plant response rating: Postemergence; for Plant response rating, Lambsquarters: Preemergence
Excerpt: (§2) Seeds selected from barnyardgrass (Echinochloa crus-galli), Surinam grass (Brachiaria decumbens), cocklebur (Xanthium strumarium), corn (Zea mays), crabgrass (Digitaria sanguinalis), giant foxtail (Setaria faberii), lambsquarters (Chenopodium album), morningglory (Ipomoea coccinea), pigweed (Amaranthus retroflexus), velvetleaf (Abutilon theophrasti), and wheat (Triticum aestivum) were planted and treated preemergence with test chemicals formulated in a non-phytotoxic solvent mixture which included a surfactant.
(§3) At the same time, plants selected from these crop and weed species and also blackgrass (Alopecurus myosuroides) and wild oat (Avena fatua) were treated with postemergence applications of test chemicals formulated in the same manner. Plants ranged in height from 2 to 18 cm (1- to 4-leaf stage) for postemergence treatments. Plant species in the flooded paddy test consisted of rice (Oryza sativa), umbrella sedge (Cyperus difformis), duck salad (Heteranthera limosa) and barnyardgrass (Echinochloa crus-galli) grown to the 2-leaf stage for testing. Treated plants and controls were maintained in a greenhouse for 13 to 15 days, after which time all species were compared to controls and visually evaluated. Plant response ratings, summarized in Table B, are based on a scale of 0 to 100 where 0 is no effect and 100 is complete control. A dash (-) response means no test result.

[4] = test system: corn (Zea mays); experiment: Test B pre/postemergence; conditions: for Corn plant response rating: Postemergence; for Plant response rating, Corn: Preemergence
Excerpt: as §2, §3

[5] = test system: pigweed (Amaranthus retroflexus); experiment: Test B pre/postemergence; conditions: for Pigweed plant response rating: Postemergence; for Plant response rating, Pigweed: Preemergence
Excerpt: as §2, §3

[6] = test system: barnyardgrass (Echinochloa crus-galli); experiment: Test B pre/postemergence; conditions: for Barnyardgrass plant response rating: Postemergence; for Plant response rating, Barnyardgrass: Preemergence
Excerpt: as §2, §3

[7] = test system: wheat (Triticum aestivum); experiment: Test B pre/postemergence; conditions: for Wheat plant response rating: Postemergence; for Plant response rating, Wheat: Preemergence
Excerpt: as §2, §3

[8] = test system: giant foxtail (Setaria faberii); experiment: Test B pre/postemergence; conditions: for Foxtail, Giant plant response rating: Postemergence; for Plant response rating, Foxtail, Giant: Preemergence
Excerpt: as §2, §3

[9] = test system: velvetleaf (Abutilon theophrasti); experiment: Test B pre/postemergence; conditions: for Velvetleaf plant response rating: Postemergence; for Plant response rating, Velvetleaf: Preemergence
Excerpt: as §2, §3

[10] = test system: crabgrass (Digitaria sanguinalis); experiment: Test B pre/postemergence; conditions: for Crabgrass plant response rating: Postemergence; for Plant response rating, Crabgrass: Preemergence
Excerpt: as §2, §3

[11] = test system: cocklebur (Xanthium strumarium); experiment: Test B pre/postemergence; conditions: for Cocklebur plant response rating: Postemergence; for Plant response rating, Cocklebur: Preemergence
Excerpt: as §2, §3

[12] = test system: morningglory (Ipomoea coccinea); experiment: Test B pre/postemergence; conditions: for Morningglory plant response rating: Postemergence; for Plant response rating, Morningglory: Preemergence
Excerpt: as §2, §3

[13] = test system: Surinam grass (Brachiaria decumbens); experiment: Test B pre/postemergence; conditions: for Surinam Grass plant response rating: Postemergence; for Plant response rating, Surinam Grass: Preemergence
Excerpt: as §2, §3

[14] = test system: giant foxtail (Setaria faberi); experiment: Test A pre/postemergence
Outline: (§4)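 Pre/post greenhouse screen; loam/sand soil; solvent + surfactant formulation; pre = directed soil spray at planting, post = 1–2 leaf plants, 2–10 cm; ~10 d; visual 0–100 rating vs untreated.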

[15] = test system: barnyardgrass (Echinochloa crus-galli); experiment: Test A pre/postemergence
Outline: as §4

[16] = test system: morningglory (Ipomoea spp.); experiment: Test A pre/postemergence
Outline: as §4

[17] = test system: velvetleaf (Abutilon theophrasti); experiment: Test A pre/postemergence
Outline: as §4

[18] = test system: crabgrass (Digitaria sanguinalis); experiment: Test A pre/postemergence
Outline: as §4

[19] = test system: redroot pigweed (Amaranthus retroflexus); experiment: Test A pre/postemergence
Outline: as §4

[20] = test system: duck salad (Heteranthera limosa); experiment: Test B flooded paddy test; conditions: Flood, scale 0 to 100
Outline: (§5)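 Rice, umbrella sedge, duck salad and barnyardgrass grown to 2-leaf stage under flooded paddy conditions and treated with formulated test chemicals. Kept in greenhouse 13–15 days, then visually rated against untreated controls on a 0–100 scale (0 no effect, 100 complete control).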

[21] = test system: rice (Oryza sativa); experiment: Test B flooded paddy test; conditions: Flood, scale 0 to 100
Outline: as §5

[22] = test system: umbrella sedge (Cyperus difformis); experiment: Test B flooded paddy test; conditions: Flood, scale 0 to 100
Outline: as §5

[23] = test system: barnyardgrass (Echinochloa crus-galli); experiment: Test B flooded paddy test; conditions: Flood, scale 0 to 100
Outline: as §5

[24] = 62 g ai/ha, scale 0 to 100 (0 no effect, 100 complete control)
[25] = 125 g ai/ha, scale 0 to 100 (0 no effect, 100 complete control)
[26] = 62 g ai/ha, scale 0 to 100, 0 no effect, 100 complete control
[27] = Postemergence, 125 g ai/ha, 0 to 100 scale (0 no effect, 100 complete control)
[28] = Postemergence, 500 g ai/ha, 0 to 100 scale (0 no effect, 100 complete control)
[29] = Preemergence, 125 g ai/ha, 0 to 100 scale where 0 is no effect and 100 is complete control, approximately ten days
[30] = Preemergence, 500 g ai/ha, 0 to 100 scale where 0 is no effect and 100 is complete control, approximately ten days

COC(=O)c1nc(-c2ccc(F)cc2)nc(N)c1Br [Compound 92]
20: Blackgrass plant response rating ([2]; 62 g ai/ha) | Blackgrass plant response rating ([2]; 125 g ai/ha) | Foxtail, Giant plant response rating [8, 24] | Crabgrass plant response rating [10, 25]
45: Plant response rating, Morningglory [16, 27] | Plant response rating, Velvetleaf [17, 27] | Plant response rating, Velvetleaf [17, 30] | Plant response rating, Pigweed [19, 30]
15: Plant response rating, Pigweed [19, 29]
5: Plant response rating, Crabgrass [18, 28]
60: Velvetleaf plant response rating [9, 25] | Cocklebur plant response rating [11, 24] | Morningglory plant response rating [12, 25]
0: Oat, Wild plant response rating ([1]; 62 g ai/ha) | Oat, Wild plant response rating ([1]; 125 g ai/ha) | Corn plant response rating [4, 24] | Corn plant response rating [4, 25] | Plant response rating, Corn [4, 26] | Plant response rating, Corn [4, 25] | Wheat plant response rating [7, 24] | Wheat plant response rating [7, 25] | Plant response rating, Wheat [7, 26] | Plant response rating, Foxtail, Giant [8, 26] | Crabgrass plant response rating [10, 24] | Plant response rating, Crabgrass [10, 26] | Plant response rating, Morningglory [12, 26] | Plant response rating, Morningglory [12, 25] | Surinam Grass plant response rating [13, 24] | Plant response rating, Surinam Grass [13, 26] | Plant response rating, Surinam Grass [13, 25] | Plant response rating, Foxtail, Giant [14, 27] | Plant response rating, Foxtail, Giant [14, 28] | Plant response rating, Foxtail, Giant [14, 29] | Plant response rating, Foxtail, Giant [14, 30] | Plant response rating, Barnyardgrass [15, 27] | Plant response rating, Barnyardgrass [15, 28] | Plant response rating, Barnyardgrass [15, 29] | Plant response rating, Barnyardgrass [15, 30] | Plant response rating, Morningglory [16, 29] | Plant response rating, Morningglory [16, 30] | Plant response rating, Crabgrass [18, 27] | Plant response rating, Crabgrass [18, 29] | Plant response rating, Crabgrass [18, 30] | Plant response rating, Rice ([21]; 125 g ai/ha) | Plant response rating, Rice ([21]; 500 g ai/ha) | Plant response rating, Barnyardgrass ([23]; 125 g ai/ha) | Plant response rating, Barnyardgrass ([23]; 500 g ai/ha)
50: Plant response rating, Lambsquarters [3, 26] | Velvetleaf plant response rating [9, 24] | Plant response rating, Velvetleaf [9, 26] | Plant response rating, Cocklebur [11, 25] | Morningglory plant response rating [12, 24]
90: Lambsquarters plant response rating [3, 24] | Lambsquarters plant response rating [3, 25] | Plant response rating, Ducksalad ([20]; 500 g ai/ha) | Plant response rating, Sedge, Umbrella ([22]; 500 g ai/ha)
75: Plant response rating, Morningglory [16, 28]
30: Plant response rating, Barnyardgrass [6, 25] | Plant response rating, Wheat [7, 25] | Foxtail, Giant plant response rating [8, 25]
10: Barnyardgrass plant response rating [6, 24] | Barnyardgrass plant response rating [6, 25] | Plant response rating, Barnyardgrass [6, 26] | Plant response rating, Foxtail, Giant [8, 25] | Plant response rating, Crabgrass [10, 25] | Surinam Grass plant response rating [13, 25] | Plant response rating, Velvetleaf [17, 29]
40: Plant response rating, Pigweed [5, 26] | Plant response rating, Cocklebur [11, 26]
70: Pigweed plant response rating [5, 24] | Plant response rating, Velvetleaf [9, 25] | Plant response rating, Velvetleaf [17, 28] | Plant response rating, Pigweed [19, 28]
35: Plant response rating, Pigweed [19, 27]
80: Plant response rating, Lambsquarters [3, 25] | Pigweed plant response rating [5, 25] | Plant response rating, Pigweed [5, 25] | Cocklebur plant response rating [11, 25] | Plant response rating, Ducksalad ([20]; 125 g ai/ha) | Plant response rating, Sedge, Umbrella ([22]; 125 g ai/ha)

Source: patent publication US8802597B2, “Herbicidal pyrimidines” (E I du Pont de Nemours and Company, priority 2003, dated 2014)
